Assays:
FR1 = FR1 (Homo sapiens, UniProt P15328); conditions: read-out: affinity; cited from earlier work
FR2 = FR2 (Homo sapiens, UniProt P14207); conditions: read-out: affinity; cited from earlier work
[1] = system: BT-549 breast cancer cells; conditions: BT-549 cells with amplified centrosomes; cited from earlier work
[2] = biological target: KIFC1/microtubule (MT) binary complex (Homo sapiens, UniProt Q9BW19); conditions: ATP-competitive, MT-noncompetitive; cited from earlier work
[3] = system: prostate cancer xenografts; experiment: Immunoblots and IHC of xenograft tumors; type: in vivo, mice
Source text: (§1) FIG. 4. (A) Immunoblots of control and Etn-treated cell lysates for pRb, cdk4, cdk2, p21, c-PARP, Bim, Bcl-2 and β actin. […] (C) Immunoblots of control and Etn-treated tumors lysates for p53, p21, Bax, pBcl-2, c-PARP, Bim, Bid and β actin. (D) Micrographs showing IHC staining of Ki67 and c-PARP in control and Etn-treated prostate cancer xenografts.

[4] = system: MDA-MB-468, OVCAR-3, HCT116 and CFPAC cells; experiment: MTT dose-response on cancer cell lines from diverse tissues; type: cell-based
Method: (§2) PhosE was ineffective in inhibiting proliferation and colony formation of these cell lines up to 100 mg/ml (data not shown).

PC-3 cells [5] = experiment: Annexin V flow cytometry, PC-3 cells; type: cell-based, human
[6] = system: PC-3, DU145, C42B and RWPE-1 cells; experiment: MTT cell survival, prostate cancer lines versus normal prostate cells; type: cell-based; conditions: 0.5 and 1 mg/mL, 48 hours, pH 7.4
Method: as §2

PC-3 cells [7] = experiment: MTT cell survival/proliferation assay, PC-3 cells; type: cell-based, human; conditions: 48 hours, pH 7.4, compared with PhosE
Method: as §2

PC-3 cells [8] = experiment: Clonogenic survival assay, PC-3 cells; type: cell-based, human; conditions: 2 mg/mL, pH 7.4, PC-3 cells
Method: as §2

HIF1-α = HIF1-α immunoblot of treated cell lysates; type: cell-based; conditions: Etn-treated cells
Method: (§3) FIG. 5. (A) Immunoblots of control and Etn-treated cell lysates for HIF1-α. […] Intracellular glucose (Ci) and glutamine (Cii) levels in control and Etn-treated tumors. (D) Effect of choline kinase inhibition on intracellular levels of glucose (Di) and glutamine (Dii) in Etn-treated cells.
(§4) It was hypothesized that PhosE accumulation alters HIF1-a expression/function that impairs glucose/glutamine metabolism leading to metabolic stress, which activates p53-induced cell death. […] OCR was measured in control and Etn-treated cells, and evaluated the glucose and glutamine content in (a) cultured cells and (b) tumors from control and Etn-treated mice. […] Inhibition of CK abrogated the Etn-mediated decrease in cellular glucose and glutamine content (FIGS. 5Di, ii).

[9] = system: prostate cancer xenograft tumors; experiment: Glucose and glutamine content of tumors; type: in vivo, mice; conditions: versus control
Method: as §3, §4

CYP = experiment: CYP-related drug-drug interaction liability; type: in vitro ADME
Source text: (§5) ADM E and pharmacological properties of orally-delivered PhosE and Etn [both phosphatidylethanolamine (PE) lipid precursors] were first compared. […] Our mechanistic studies identified CK overexpression—a hallmark of metabolic reprogramming in multiple cancer types—in prostate tumor cells compared to adjacent normal. […] It was hypothesize that an Etn-based formulation can be developed into a safe, selective, pharmacodynamically- and pharmacokinetically-favorable, IND entity that singly or synergistically with the ICI Nivolumab, provides a novel therapeutic option for chemo-resistant EOCs/OCCC.

PC-3 cells [10] = experiment: Immunoblots of cell cycle and apoptosis markers in PC-3 cell lysates; type: cell-based, human
Source text: as §1

[11] = system: prostate cancer xenograft tumors; experiment: TEM and LC/MS-MS lipidomics of xenograft tumors; type: in vivo, mice
Source text: FIG. 6. […] Ultra-thin sections were cut on Boeckeler MTx ultramicrotome, counterstained with lead citrate, and examined on a LEO 906e TEM. Mitochondria and accumulated lipid granules are highlighted by red arrows. […] Left panels, scale bar ¼2 […]; right panels, scale bar ¼5 mm. […] Levels of PE (i), PS (ii), PC (iii), and SM (iv) lipids in control and Etn-treated tumors. In the abbreviation of lipid, 1st and 2nd numbers denote the number of carbon atoms and unsaturated bonds present in the lipid, respectively. Lipid amounts were quantified by LC/MS-MS. Values and error bars shown represent mean and SE, respectively.
Lipidomic analyses of tumors from control and Etn-treated groups quantified 402 lipids from various lipid classes such as phosphatidylethanolamine (PE), phosphatidylcholine (PC), phosphatidylserine (PS), lysophospholipids, ceramides, and sphingomyelin (SM). Levels of 21 PE lipids (FIG. 6Bi), and other lipids from the PS (FIG. 6Bii), PC (FIG. […]), and SM (FIG. 6Biv) classes were increased in Etn-treated tumors. Thus, PhosE and phospholipid accumulation downregulates HIF-1α, precipitates a bioenergetics/metabolic crisis, activates p53-mediated signaling and culminates in cell death.

PC-3 cells [12] = experiment: Intracellular Etn and PhosE levels in treated PC-3 cells; type: cell-based, human; conditions: PC-3 cells treated with Etn or PhosE
Source text: (§6) FIG. 2. […] (B) Effect of choline kinase inhibition on proliferation of PC-3 cells. (C) Intracellular PhosE level upon Etn treatment.

PC-3 cells [13] = experiment: PC-3 survival on Etn treatment with or without choline kinase inhibitor; type: cell-based, human; conditions: with CK inhibition
Source text: as §6

PC-3 cells [14] = experiment: Oxygen consumption rate in PC-3 cells; type: cell-based, human
Method: as §3, §4

[15] = system: prostate cancer xenograft (PC-3-luc tumors); experiment: Prostate cancer xenograft model, oral treatment; type: in vivo, mice
Source text: FIG. 3. (Ai) Representative bioluminescent images of one animal per group indicating progression of tumor growth over 4 weeks in control and Etn-treated mice. (Aii) Tumor growth monitored (by vernier calipers) over a period of 4 weeks. (Aiii) Weight of tumors from control and Etn-treated mice.
The in vivo efficacy of this formulation was first examined (FIG. 3A). There was an ˜67% reduction in tumor volume (FIG. 3Aii) and ˜55% reduction in tumor weight (FIG. 3Aiii) after 4 weeks of treatment.

[16] = GI tract stability, Etn compared with PhosE; type: in vitro ADME; conditions: compared to PhosE
Source text: as §5

cultured cells = experiment: Glucose and glutamine content of cultured cells; type: cell-based; conditions: versus control
Method: as §3, §4

[17] = 40 mg/kg Etn, pH=5.0, oral, after 4 weeks

Sequence of KIFC1/microtubule (MT) binary complex (Q9BW19 whole entry, species assumed): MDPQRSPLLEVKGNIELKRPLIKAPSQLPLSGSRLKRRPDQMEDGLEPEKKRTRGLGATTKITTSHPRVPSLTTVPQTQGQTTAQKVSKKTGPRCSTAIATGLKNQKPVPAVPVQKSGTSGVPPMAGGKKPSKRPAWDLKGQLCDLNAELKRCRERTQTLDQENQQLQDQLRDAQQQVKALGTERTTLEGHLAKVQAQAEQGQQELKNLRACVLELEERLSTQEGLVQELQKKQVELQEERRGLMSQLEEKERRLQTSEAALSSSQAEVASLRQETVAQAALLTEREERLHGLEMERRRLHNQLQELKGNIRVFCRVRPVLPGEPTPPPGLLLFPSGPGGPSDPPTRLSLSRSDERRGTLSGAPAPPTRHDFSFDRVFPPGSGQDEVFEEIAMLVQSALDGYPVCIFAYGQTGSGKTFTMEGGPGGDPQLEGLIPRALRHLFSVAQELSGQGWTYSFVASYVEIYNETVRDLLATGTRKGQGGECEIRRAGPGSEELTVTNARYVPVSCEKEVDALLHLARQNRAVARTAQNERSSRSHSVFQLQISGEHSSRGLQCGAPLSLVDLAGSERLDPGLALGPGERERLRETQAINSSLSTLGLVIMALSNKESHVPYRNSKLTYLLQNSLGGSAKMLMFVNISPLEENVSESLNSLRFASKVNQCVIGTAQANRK
Sequence of KIFC1/microtubule (MT) binary complex (P68363 whole entry partner, species assumed): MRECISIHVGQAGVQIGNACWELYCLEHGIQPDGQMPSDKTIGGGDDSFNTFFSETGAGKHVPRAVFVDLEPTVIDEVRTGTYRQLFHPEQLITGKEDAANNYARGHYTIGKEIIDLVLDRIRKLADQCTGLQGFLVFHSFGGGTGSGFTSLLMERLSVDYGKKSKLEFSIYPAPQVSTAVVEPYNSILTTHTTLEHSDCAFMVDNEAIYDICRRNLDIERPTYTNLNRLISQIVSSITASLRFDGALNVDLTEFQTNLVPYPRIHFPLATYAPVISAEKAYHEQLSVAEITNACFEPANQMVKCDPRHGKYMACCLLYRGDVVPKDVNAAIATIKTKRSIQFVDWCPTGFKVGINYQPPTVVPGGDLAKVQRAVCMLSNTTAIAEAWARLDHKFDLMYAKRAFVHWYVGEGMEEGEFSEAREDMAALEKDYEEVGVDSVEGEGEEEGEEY
Sequence of KIFC1/microtubule (MT) binary complex (Q9BVA1 whole entry partner, species assumed): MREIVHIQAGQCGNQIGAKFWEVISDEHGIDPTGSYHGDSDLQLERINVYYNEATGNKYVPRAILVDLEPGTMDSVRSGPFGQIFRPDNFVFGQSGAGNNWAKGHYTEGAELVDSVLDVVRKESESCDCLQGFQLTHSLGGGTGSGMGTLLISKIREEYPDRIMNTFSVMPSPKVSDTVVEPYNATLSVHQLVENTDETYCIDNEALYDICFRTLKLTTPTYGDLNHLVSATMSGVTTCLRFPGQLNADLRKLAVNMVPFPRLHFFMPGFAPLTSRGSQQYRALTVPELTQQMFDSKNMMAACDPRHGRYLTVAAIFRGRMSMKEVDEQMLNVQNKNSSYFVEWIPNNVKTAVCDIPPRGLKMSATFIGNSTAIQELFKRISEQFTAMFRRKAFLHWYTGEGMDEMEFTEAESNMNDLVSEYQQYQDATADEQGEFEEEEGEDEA
Sequence of FR2 (P14207 17-230): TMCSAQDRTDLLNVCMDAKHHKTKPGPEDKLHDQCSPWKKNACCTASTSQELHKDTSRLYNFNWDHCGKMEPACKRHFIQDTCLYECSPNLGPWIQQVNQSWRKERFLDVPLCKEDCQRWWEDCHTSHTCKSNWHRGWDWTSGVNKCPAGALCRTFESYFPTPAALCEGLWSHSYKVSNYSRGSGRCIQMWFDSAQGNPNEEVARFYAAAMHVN
Sequence of FR1 (P15328 25-234): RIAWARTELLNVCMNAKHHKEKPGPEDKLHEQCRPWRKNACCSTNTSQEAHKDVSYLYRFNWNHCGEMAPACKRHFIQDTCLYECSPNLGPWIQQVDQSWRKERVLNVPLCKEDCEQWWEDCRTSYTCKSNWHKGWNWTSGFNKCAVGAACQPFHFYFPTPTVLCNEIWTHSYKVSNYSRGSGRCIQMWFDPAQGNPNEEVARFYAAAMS

Q: Which Kd (FR1) does the source give for `CN1c2c(nc(N)[nH]c2=O)NC[C@@H]1CNc1ccc(C(=O)N[C@@H](CCC(=O)O)C(=O)O)cc1` [6S 5-methyltetrahydrofolate] here?
A: 55 nM

Q: What about the Kd (FR2) of the same compound?
A: 1 nM

Q: Which results are given for `CCCc1cc(C(=O)N[C@H](Cc2ccc(-c3cccc(OC(F)(F)F)c3)nc2)C(=O)N[C@@H]2CCNC2)sc1C` [AZ82]?
A: centrosome declustering [1]: causes centrosome declustering; Ki [2]: 43 nM

Q: What does the source list for `NCCO` [Etn, Monoethanolamine]?
A: tumor lysate markers (p53, p21, Bax, pBcl2, c-PARP, Bim, Bid) ([3]; 40 mg/kg Etn): upregulation of p53, p21, Bax, pBcl2, c-PARP, Bim and Bid; Ki67 and c-PARP expression (IHC) in tumors ([3]; treated versus control tumors): marked decrease in Ki67 expression and increase in c-PARP expression; inhibition of proliferation ([4]; breast, ovary, colon and pancreas cell lines): inhibited proliferation in all the cell lines tested; annexin-V positive apoptotic cells (PC-3 cells [5]): increased the number of annexin-V positive apoptotic cells; reduction of viability, prostate cancer lines versus normal prostate cells [6]: more effective in reducing viability of prostate cancer lines; inhibition of PC-3 cell proliferation (PC-3 cells [7]): more effective; decrease in colony numbers (PC-3 cells [8]): ~97%; HIF1-a expression (HIF1-α): strongly downregulated; glucose content [9]: significantly reduced; glutamine content [9]: significantly reduced; CYP-related drug-drug interaction liability (CYP): lacked CYP-related drug-drug interaction liability; apoptosis markers (c-PARP, Bim, Bcl-2) (PC-3 cells [10]): increased levels of proapoptotic markers such as c-PARP and Bim, and decreased antiapoptotic molecules such as Bcl-2; cell cycle markers (pRb, Cdk4, Cdk2, p21) (PC-3 cells [10]): downregulated pRb, Cdk4, and Cdk2, and upregulated p21; mitochondrial morphology (TEM) ([11]; 40 mg/kg Etn-treated tumors versus controls): elongated mitochondria with highly degraded matrices; levels of PE, PS, PC and SM lipids ([11]; Etn-treated tumors, LC/MS-MS): increased; intracellular PhosE levels (PC-3 cells [12]): more pronounced; antiproliferative activity in presence of CK inhibitor (PC-3 cells [13]): significantly attenuated; conversion of Etn into PhosE in presence of CK inhibitor (PC-3 cells [13]): reduced conversion of Etn into PhosE; oxygen consumption rate (OCR) (PC-3 cells [14]): decreased OCR; body weight ([15]; 40 mg/kg Etn, oral, over 4 weeks): no change in body weight; reduction in tumor volume [15, 17]: ~67%; reduction in tumor weight [15, 17]: ~55%; intratumoral Etn ([15]; after 4 weeks of Etn treatment): no significant change; intratumoral PhosE level versus controls ([15]; after 4 weeks of Etn treatment): ~38%; GI tract stability [16]: better GI tract stability; glucose content (cultured cells): significantly reduced; glutamine content (cultured cells): significantly reduced

Q: With `NCCOP(=O)(O)O` [PhosE, phosphoethanolamine, reference compound] as the compound, how does the “inhibition of proliferation and colony formation” value ([4]; up to 100 mg/ml, data not shown) read?
A: ineffective

Q: And the “decrease in colony numbers” value (PC-3 cells [8])?
A: ineffective in decreasing colony numbers

Q: What about the “intracellular PhosE levels” value (PC-3 cells [12]) of the same compound?
A: increased intracellular PhosE levels

Q: And the “inhibition of tumor growth compared with Etn” value ([15]; orally delivered formulations)?
A: less effective than Etn

Reference: patent US20230144385A1, “ETHANOLAMINE FORMULATION FOR TREATING EPITHELIAL OVARIAN CARCINOMA” (METANOI THERAPEUTICS, INC., priority 2020, published 2023)
